According to ChEMBL document CHEMBL5463729, “Data for DCP probe BAY 1753011” (2023):

Experiments:
[1] = target: Mitogen-activated protein kinase 9 (Homo sapiens) (UniProt P45984); test: Inhibition of JNK2alpha2(h) at 10.0 µM in the Eurofins Kinase panel; settings: Compound concentration 10.0 uM
[2] = target: Serine/threonine-protein kinase 10 (Homo sapiens) (UniProt O94804); test: Inhibition of LOK(h) at 10.0 µM in the Eurofins Kinase panel; settings: Compound concentration 10.0 uM
[3] = target: Adenosine receptor A2a (Homo sapiens) (UniProt P29274); settings: Compound concentration 10.0 uM
[4] = target: Serine/threonine-protein kinase WNK1 (Homo sapiens) (UniProt Q9H4A3); test: Inhibition of WNK1(h) at 10.0 µM in the Eurofins Kinase panel; settings: Compound concentration 10.0 uM
[5] = target: [Pyruvate dehydrogenase (acetyl-transferring)] kinase isozyme 4, mitochondrial (Homo sapiens) (UniProt Q16654); test: Inhibition of PDHK4(h) at 10.0 µM in the Eurofins Kinase panel; settings: Compound concentration 10.0 uM
[6] = target: 5'-AMP-activated protein kinase catalytic subunit alpha-1 (Homo sapiens) (UniProt Q13131); test: Inhibition of AMPKalpha1(h) at 10.0 µM in the Eurofins Kinase panel; settings: Compound concentration 10.0 uM
[7] = target: Serine/threonine-protein kinase Nek6 (Homo sapiens) (UniProt Q9HC98); test: Inhibition of NEK6(h) at 10.0 µM in the Eurofins Kinase panel; settings: Compound concentration 10.0 uM
[8] = target: Tyrosine-protein kinase Mer (Homo sapiens) (UniProt Q12866); test: Inhibition of Mer(h) at 10.0 µM in the Eurofins Kinase panel; settings: Compound concentration 10.0 uM
[9] = target: Muscarinic acetylcholine receptor M3 (Homo sapiens) (UniProt P20309); settings: Compound concentration 10.0 uM
[10] = target: Serine/threonine-protein kinase TAO1 (Homo sapiens) (UniProt Q7L7X3); test: Inhibition of TAO1(h) at 10.0 µM in the Eurofins Kinase panel; settings: Compound concentration 10.0 uM
[11] = target: Fibroblast growth factor receptor 2 (Homo sapiens) (UniProt P21802); test: Inhibition of FGFR2(h) at 10.0 µM in the Eurofins Kinase panel; settings: Compound concentration 10.0 uM
[12] = target: eIF-2-alpha kinase GCN2 (Homo sapiens) (UniProt Q9P2K8); test: Inhibition of GCN2(h) at 10.0 µM in the Eurofins Kinase panel; settings: Compound concentration 10.0 uM
[13] = target: ATR/ATRIP (Homo sapiens) (UniProt Q13535+Q8WXE1); test: Inhibition of ATR/ATRIP(h) at 10.0 µM in the Eurofins Kinase panel; type: protein-complex assay; settings: Compound concentration 10.0 uM
[14] = target: Death-associated protein kinase 2 (Homo sapiens) (UniProt Q9UIK4); test: Inhibition of DAPK2(h) at 10.0 µM in the Eurofins Kinase panel; settings: Compound concentration 10.0 uM
[15] = target: Serine/threonine-protein kinase PLK1 (Homo sapiens) (UniProt P53350); test: Inhibition of Plk1(h) at 10.0 µM in the Eurofins Kinase panel; settings: Compound concentration 10.0 uM
[16] = target: Mu-type opioid receptor (Homo sapiens) (UniProt P35372); settings: Compound concentration 10.0 uM
[17] = target: Interleukin-1 receptor-associated kinase 1 (Homo sapiens) (UniProt P51617); test: Inhibition of IRAK1(h) at 10.0 µM in the Eurofins Kinase panel; settings: Compound concentration 10.0 uM
[18] = target: Vasopressin V1b receptor (Homo sapiens, UniProt P47901); test: Radiometric AVPR1B binding assay (Eurofins #287560)
[19] = target: Serine/threonine-protein kinase PAK 4 (Homo sapiens) (UniProt O96013); test: Inhibition of PAK4(h) at 10.0 µM in the Eurofins Kinase panel; settings: Compound concentration 10.0 uM
[20] = target: cGMP-dependent protein kinase 2 (Homo sapiens) (UniProt Q13237); test: Inhibition of PRKG2(h) at 10.0 µM in the Eurofins Kinase panel; settings: Compound concentration 10.0 uM
[21] = target: LIM domain kinase 2 (Homo sapiens) (UniProt P53671); test: Inhibition of LIMK2(h) at 10.0 µM in the Eurofins Kinase panel; settings: Compound concentration 10.0 uM
[22] = target: Calcium/calmodulin-dependent protein kinase kinase 2 (Homo sapiens) (UniProt Q96RR4); test: Inhibition of CaMKK2(h) at 10.0 µM in the Eurofins Kinase panel; settings: Compound concentration 10.0 uM
[23] = target: Tau-tubulin kinase 2 (Homo sapiens) (UniProt Q6IQ55); test: Inhibition of TTBK2(h) at 10.0 µM in the Eurofins Kinase panel; settings: Compound concentration 10.0 uM
[24] = target: Serine/threonine-protein kinase Nek5 (Homo sapiens) (UniProt Q6P3R8); test: Inhibition of NEK5(h) at 10.0 µM in the Eurofins Kinase panel; settings: Compound concentration 10.0 uM
[25] = target: Tribbles homolog 2 (Homo sapiens) (UniProt Q92519); test: Inhibition of TRB2(h) at 10.0 µM in the Eurofins Kinase panel; settings: Compound concentration 10.0 uM
[26] = target: CDK9/cyclin T1 (Homo sapiens) (UniProt O60563+P50750); test: Inhibition of CDK9/cyclin T1(h) at 10.0 µM in the Eurofins Kinase panel; type: protein-complex assay; settings: Compound concentration 10.0 uM
[27] = target: Serine/threonine-protein kinase TBK1 (Homo sapiens) (UniProt Q9UHD2); test: Inhibition of TBK1(h) at 10.0 µM in the Eurofins Kinase panel; settings: Compound concentration 10.0 uM
[28] = target: Activin receptor type-2A (Homo sapiens) (UniProt P27037); test: Inhibition of ACTR2(h) at 10.0 µM in the Eurofins Kinase panel; settings: Compound concentration 10.0 uM
[29] = target: Eukaryotic translation initiation factor 2-alpha kinase 3 (Homo sapiens) (UniProt Q9NZJ5); test: Inhibition of PEK(h) at 10.0 µM in the Eurofins Kinase panel; settings: Compound concentration 10.0 uM
[30] = target: Ribosomal protein S6 kinase beta-2 (Homo sapiens) (UniProt Q9UBS0); test: Inhibition of p70S6Kbeta(h) at 10.0 µM in the Eurofins Kinase panel; settings: Compound concentration 10.0 uM
[31] = target: T1, Alpha-2B adrenergic receptor (Homo sapiens) (UniProt P18089); settings: Compound concentration 10.0 uM
T1 sequence (whole entry): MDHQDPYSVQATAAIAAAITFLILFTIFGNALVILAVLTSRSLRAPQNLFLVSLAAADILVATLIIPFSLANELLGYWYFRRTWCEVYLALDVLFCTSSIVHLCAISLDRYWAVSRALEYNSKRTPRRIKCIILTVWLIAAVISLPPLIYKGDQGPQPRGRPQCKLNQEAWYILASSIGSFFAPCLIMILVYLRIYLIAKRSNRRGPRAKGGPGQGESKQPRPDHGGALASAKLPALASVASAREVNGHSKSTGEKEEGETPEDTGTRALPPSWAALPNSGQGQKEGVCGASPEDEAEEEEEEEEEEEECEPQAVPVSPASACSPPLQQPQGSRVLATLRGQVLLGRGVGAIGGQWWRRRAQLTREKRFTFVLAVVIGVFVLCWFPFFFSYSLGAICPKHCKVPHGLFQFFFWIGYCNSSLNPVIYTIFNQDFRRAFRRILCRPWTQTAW

[32] = target: Delta-type opioid receptor (Homo sapiens) (UniProt P41143); settings: Compound concentration 10.0 uM
[33] = target: Protein-tyrosine kinase 6 (Homo sapiens) (UniProt Q13882); test: Inhibition of BRK(h) at 10.0 µM in the Eurofins Kinase panel; settings: Compound concentration 10.0 uM
[34] = target: Homeodomain-interacting protein kinase 4 (Homo sapiens) (UniProt Q8NE63); test: Inhibition of HIPK4(h) at 10.0 µM in the Eurofins Kinase panel; settings: Compound concentration 10.0 uM

Row | SMILES | inhibition [1] | inhibition [2] | inhibition [3] | inhibition [4] | inhibition [5] | inhibition [6] | inhibition [7] | inhibition [8] | inhibition [9] | inhibition [10] | inhibition [11] | inhibition [12] | inhibition [13] | inhibition [14] | inhibition [15] | inhibition [16] | inhibition [17] | Ki [18] | inhibition [19] | inhibition [20] | also measured
1 | O=c1n(Cc2cncn2-c2cccc(Cl)c2)nc(-c2ccc(Cl)cc2)n1C[C@H](O)C(F)(F)F | 2.28% | 10.4% | 1% | -5.38% | 5.68% | -6.67% | 5.32% | -6.11% | -4.25% | 0.29% | -6.43% | 12.4% | 10.2% | 11.7% | -0.49% | -6% | 1.24% | > 10 µM (not active) | -2.41% | -3.28% | inhibition [21]: 1.5%; inhibition [22]: -6.67%; inhibition [23]: -2.08%; inhibition [24]: 8.71%; inhibition [25]: 3.48%; inhibition [26]: -1.79%; inhibition [27]: 7.19%; inhibition [28]: 6.32%; inhibition [29]: -1.49%; inhibition [30]: 3.66%; inhibition [31]: 2%; inhibition [32]: 12.4%; inhibition [33]: -7.96%; inhibition [34]: 4.55%
2 | C[C@H](O)c1nc(Cn2nc(-c3ccc(Cl)cc3)n(C[C@H](O)C(F)(F)F)c2=O)nn1-c1cccc(Cl)c1 [PECAVAPTAN] | -1.69% | 2.48% | 4% | 6.35% | 9.02% | -4.1% | 4.93% | -0.91% | 28.2% | 2.68% | -7.72% | 13.1% | -5.29% | -2.55% | -2.91% | 24% | -0.22% | > 10 µM (not active) | -1.84% | -2.94% | inhibition [21]: 0.25%; inhibition [22]: -6.9%; inhibition [23]: -8.61%; inhibition [24]: 6.17%; inhibition [25]: -2.41%; inhibition [26]: -3.05%; inhibition [27]: -2.96%; inhibition [28]: 5.43%; inhibition [29]: 1.82%; inhibition [30]: 1.85%; inhibition [31]: 8%; inhibition [32]: 15.4%; inhibition [33]: -3.8%; inhibition [34]: -3.59%
